Here are results for 1 substance from patent US20240294881A1, “CELL CULTURE SUPPLEMENT FOR PRODUCING STEM CELLS, AND METHOD FOR PRODUCING STEM CELLS” (OPTICELL, INC, priority 2021, published 2024).

Some results are limits rather than exact numbers.

What all share (format): cell-based
The test system of experiment [1] is healthy human neonatal fibroblasts. The experiment can be described thus: Real-time PCR of undifferentiated stem cell and three germ layer marker genes in neonatal fibroblast spheroids (96-well round-bottom). Particulars: day 20 of 3D spheroid culture, coated 96-well round-bottom; 2D control without supplement day 0 = 1.0; ΔΔCt. The method, then:
To observe the spheroid formation and stem cell induction in healthy human neonatal fibroblasts over time, culture was performed by using a 96-well round-bottom culture vessel. An aqueous solution of the polypeptide represented by formula (1) (0.125%) (cell culture supplement) was added to a commercial polystyrene-made 96-well round-bottom culture vessel (Nunclon Delta 96U Bottom, Thermo Fisher Scientific) at 100 μL/well and allowed to stand at 4° C. for 24 hours. Thereafter, the excess cell culture supplement was removed, and the remaining solution was dried in a dryer at 37° C. for 96 hours to complete coating treatment with the cell culture supplement. Fibroblasts were maintained and cultured in a serum-free medium (Promo Cell; fibroblast basal medium, basic-FGF 5 ng/ml and insulin 2.5 μg/mL). The fibroblasts floating in the medium were seeded in the culture vessel coated with the cell culture supplement at 4×10^4 cells/well/100 μL and cultured at 37° C. under 5% CO2 conditions.
To investigate the expression mechanism of the undifferentiated stem cell marker genes found in Example 1 over time, real-time PCR analysis was performed by using the following three transcription factors: SOX2 (sex-determining region Y-box 2), OCT4 (octamer binding transcription factor 4), and NANOG (homeodomain transcription factor), and a TaqMan gene expression assay probe (B-actin) as an endogenous control gene. In the expression analysis, relative quantification was performed according to the ΔΔCt method (Delta Delta Ct method) (FIG. 8).
To determine whether stem cells induced from fibroblasts have a differentiation-inducing ability, analysis was conducted on the expression of genes associated with the three germ layers that indicate the early stages of differentiation. Fibroblasts were cultured in the same type of a 96-well culture vessel treated with the cell culture supplement as above according to the same method. Real-time PCR analysis was performed by using the following expression detection probes for the genes associated with differentiation into the three germ layers: SOX17 (sex-determining region Y-box 17; endoderm), HAND1 (Heart-and neural crest derivatives-expressed protein-1; mesoderm), and MAP2 (microtubule associated protein 2: ectoderm), and a TaqMan gene expression assay probe (ß-actin) as the endogenous control gene. In the expression analysis, relative quantification was performed according to the ΔΔCt method (Delta Delta Ct method) (FIG. 9).
(Quantitative PCR measures a nucleic acid by following its amplification.)

Experiment [2] concerns HOS-143B (human osteosarcoma). Briefly: Study of concentration of cell culture supplement: spheroid formation. Particulars: 96-well flat-bottom plate, 3 days of culture. The procedure: An aqueous solution of the polypeptide represented by formula (1) (0.5%) was diluted 4-fold to 1024-fold to prepare different diluted solutions (cell culture supplement), and 100 μl of the solution was added to each well of a commercial 96-well flat-bottom plate (CellBIND, Corning) and allowed to stand at 4° C. for 16 hours.
Thereafter, the excess cell culture supplement was removed, and the remaining solution was dried under reduced pressure at room temperature for 24 hours. HOS-143B (human osteosarcoma) was seeded at 3,000 cells/well in a culture plate coated with the cell culture supplement and cultured at 37° C. under 5% CO2 conditions. The medium used was DMEM+10% FBS.

Experiment [3] relates to HOS-143B (human osteosarcoma). The experiment can be described thus: Study on plate shape: spheroid formation. Particulars: 96-well plate coated with 0.125% solution, 2 days of culture. The procedure: (§1) 200 μl of an aqueous solution of the polypeptide represented by formula (1) (0.125%) (cell culture supplement) was added to each well of a commercial 96-well flat-bottom plate (Thermo Fisher Scientific), a V-bottom plate (Thermo Fisher Scientific), and a U-bottom plate (Thermo Fisher Scientific) and allowed to stand at 4° C. for 16 hours.
(§2) Thereafter, the excess cell culture supplement was removed, and the remaining solution was dried under reduced pressure at room temperature for 24 hours.
(§3) Hela cells (human cervical epithelial cancer, JCRB9004, National Institutes of Biomedical Innovation, Health and Nutrition) and HOS-143B (human osteosarcoma) were seeded at 2,000 cells/well in a culture plate coated with the cell culture supplement and cultured at 37° C. under 5% CO2 conditions. The medium used was DMEM+10% FBS.

Experiment [4] deals with Hela cells (human cervical epithelial cancer). The experiment can be described thus: Study on plate shape: spheroid formation. To be noted: 96-well plate coated with 0.125% solution, 2 days of culture. The procedure: as §1, §2, §3

As to “(Pro-Hyp-Gly)n [cell culture supplement]”, in experiment [1], the “HAND1 (mesoderm) gene expression level (increase vs control)” value came out at 4.6 fold, the “MAP2 (ectoderm) gene expression level (increase vs control)” value was 24.2 fold, the “NANOG gene expression level (increase vs control)” value is reported as 35.4 fold and the “OCT4 gene expression level (increase vs control)” value is 30.1 fold. Further, in experiment [1], the “SOX2 gene expression level (increase vs control)” value came to 144.0 fold and the “SOX17 (endoderm) gene expression level (increase vs control)” value is on record as 359.6 fold. Besides, the “spheroid formation in plates coated with solutions diluted further than 256-fold” value in experiment [2] is “No formation of spheroids was observed”. Further, in experiment [2] (dilutions 4-fold to 1024-fold), the “dilution of the 0.5% aqueous solution used for coating at which formation of spheroids was observed” value is ≤ 256 -fold diluted. Further, in experiment [3], the “spheroid formation, U-bottom plate” value is on record as “several spheroids”; the “spheroid formation, V-bottom plate” value was “a single spheroid”; the “spheroid formation, flat-bottom plate” value is “Numerous small spheroids”. Moreover, in experiment [4], the “spheroid formation, U-bottom plate” value was “several spheroids”; the “spheroid formation, V-bottom plate” value is reported as “a single spheroid”; the “spheroid formation, flat-bottom plate” value is given as “Numerous small spheroids”.
